Measured values taken from patent US8577617B2, “Metabolic phenotyping” (priority 2002, dated 2013).
Several values for one entry are separate records, joined by “and”; a condition that tells them apart may be missing. Identical values can stand only once. Entries after “also recorded” stand apart in the source; their conditions may differ.

Legend:
[1] = system: male Sprague-Dawley rats; assay: Clinical chemistry analysis of plasma after dosing galactosamine HCl; format: in vivo, rat; conditions: plasma 24 hours post-dosing
Experimental: At the time of dosing (at the start of day 1) the growing rats were each approximately 260 g in mass. Galactosamine (abbreviated GaIN) HCl (from Sigma, France) was dissolved in physiological saline and dosed by intraperitoneal injection at either 200 mg/kg or at 800 mg/kg; ten animals (nos. 101-110) received the low dose and ten animals (nos. 201-210) received the high dose. Ten control animals (nos. 1-10) received an oral dose of corn oil. Five of each group of ten rats were euthanased by means of CO2 on day 2 with the remainder being euthanased by the same technique on day 8. The early-euthanased rats were numbers 6-10, 106-110 and 206-210. The late-euthanased rats were numbers 1-5, 101-105 and 201-205. Blood was sampled from the orbital sinus, under isoflurane anaesthesia. Blood was sampled from all animals on day −3 and just prior to euthanasia on either day 2 or day 8. Following euthanasia each rat was sampled for histopathological examination with the sampling including taking ten liver samples from each rat (two from each liver lobe). The blood samples were collected into vials containing lithium heparin as anticoagulant and immediately centrifuged at approx. minus four degrees C. to separate plasma. A portion of each plasma sample was analysed at thirty degrees C. on an AU600 multiparametric clinical analyser (Olympus) for a range of clinical chemistry parameters including alanine aminotransferase (ALT) and aspartate aminotransferase (AST) amongst many others.

[2] = system: male Sprague-Dawley rats; assay: 1H NMR of post-dose urine after dosing galactosamine HCl (galactosamine excretion, endogenous metabolite changes, responder classification); format: in vivo, rat
Experimental: At the time of dosing (at the start of day 1) the growing rats were each approximately 260 g in mass. Galactosamine (abbreviated GaIN) HCl (from Sigma, France) was dissolved in physiological saline and dosed by intraperitoneal injection at either 200 mg/kg or at 800 mg/kg; ten animals (nos. 101-110) received the low dose and ten animals (nos. 201-210) received the high dose. Ten control animals (nos. 1-10) received an oral dose of corn oil.
Pre- and post-dose urine samples were collected for 7 hours daily into ice-cooled vessels containing sodium azide (0.100 ml of a 10% (w/v) solution of sodium azide in water) as an antibacterial preservative. There was an additional overnight urine collection on the day of dosing (from 7-24 hours post-dose). The urine collection apparatus was cleaned prior to each collection to minimise bacterial, food and faecal contamination. The urine samples were deep-frozen pending NMR analysis.
Urine samples were prepared for NMR analysis by mixing 400 Eli of urine with 200 μl of phosphate buffer (an 81:19 (v/v) mixture of 0.2 M Na2HPO4 and 0.2 M NaH2PO4; pH 7.4); if insufficient urine was available the shortfall was made up with purified water with a minimum of 200 μl of urine being used. The urine-buffer mixture was left to stand for 10 minutes at room temperature to enable buffering to take place and then centrifuged at 13,000 rpm for a further 10 minutes to remove suspended particulates. 500 μl of ‘clear’ buffered urine was transferred to an NMR tube and 50 μl of a TSP/D2O solution added. TSP (sodium 3-trimethylsilyl-[2,2,3,3-^2H4]-1-propionate) is a chemical shift reference compound (δ 0) used in the NMR experiment and the D2O provided a field/frequency lock for the NMR spectrometer. The concentration of the TSP/D2O solution was such as to give a final TSP concentration of 0.1 mM in the NMR tube. The NMR analyses were carried out at thirty degrees C. on a Bruker AMX 600 MHz NMR spectrometer with the NOESYPRESAT pulse sequence (Claridge, 1999) used to reduce the size of the water signal. The principal acquisition parameters were:
After acquisition, the NMR spectra were Fourier-transformed into 32768 data points following application of 0.3 Hz line-broadening by means of an exponential multiplication applied to the free induction decay signal. The spectra were phased to give an even baseline around the NMR signals and the chemical shift scale was set by assigning the value of δ 0 to the TSP peak. Prior to data-reduction, the baseline of each day −1 spectrum was moved to zero intensity using a straight-line baseline correction algorithm. All these spectral processing operations were carried out on a Silicon Graphics computer using the ‘xwinnmr’ software (Bruker GmBH).
On the basis of this visual examination, animals could be readily categorised as either (i) ‘responders’ or (ii) as ‘weak or non-responders’.

[3] = 200 mg/kg i.p., individual animals 106-110, hydrochloride
[4] = 800 mg/kg i.p., individual animals 206-210, hydrochloride
[5] = 200 mg/kg i.p., animals 101-105
[6] = 800 mg/kg i.p., animals 201-205, hydrochloride
[7] = 800 mg/kg i.p., day 2 and day 3, animals 201 and 202
[8] = 800 mg/kg i.p., day 3, animals 201 and 202
[9] = 800 mg/kg i.p., day 3, animals 201 and 202, hydrochloride

For `Cl.N[C@H]1C(O)O[C@H](CO)[C@H](O)[C@@H]1O` (stereo partly shown) [galactosamine HCl, galactosamine hydrochloride], which “GGT (γ-glutamyl transferase)” value ([1]; 200 mg/kg i.p., individual animals 106-110) is on record?
The value was 0 IU/L.

What about the “5′-NT (5-nucleotidase)” value [1, 3] of the same molecule?
The value was 23 IU/L and 21 IU/L (2×) and 19 IU/L and 27 IU/L.

What about the “A/G (albumin/globulin ratio)” value [1, 3] of the same molecule?
The value was 1.3 and 1.4 (3×) and 1.5.

And the “ALAT (alanine aminotransferase)” value [1, 3]?
The value was 43 IU/L and 46 IU/L and 49 IU/L and 38 IU/L and 47 IU/L.

What about the “ALB (albumin)” value [1, 3] of the same molecule?
The value was 33 g/L (3×) and 37 g/L and 34 g/L.

What about the “AP (alkaline phosphatase)” value [1, 3] of the same molecule?
Its value is 606 IU/L and 495 IU/L and 566 IU/L and 697 IU/L and 637 IU/L.

What about the “ASAT (aspartate aminotransferase)” value [1, 3] of the same molecule?
Its value is 107 IU/L and 84 IU/L and 73 IU/L and 67 IU/L and 75 IU/L.

What about the “BILI (bilirubin)” value [1, 3] of the same molecule?
The value was 0.09 mg/dL and 0.05 mg/dL and 0.11 mg/dL and 0.1 mg/dL and 0.12 mg/dL.

And the “CHOL (total cholesterol)” value [1, 3]?
Its value is 73 mg/dL and 60 mg/dL and 91 mg/dL and 72 mg/dL and 81 mg/dL.

And the “CREA (creatinine)” value [1, 3]?
The value was 0.5 mg/dL (4×) and 0.4 mg/dL.

And the “GLUC (glucose)” value [1, 3]?
The value was 173 mg/dL and 184 mg/dL and 167 mg/dL and 138 mg/dL and 182 mg/dL.

And the “PROT (total protein)” value [1, 3]?
Its value is 59 g/L and 56 g/L and 61 g/L and 58 g/L and 57 g/L.

And the “TBA (total bile acids)” value [1, 3]?
Its value is 48.0 μmol/L and 22.0 μmol/L and 29.0 μmol/L (2×) and 23.0 μmol/L.

What about the “TRIG (triglycerides)” value [1, 3] of the same molecule?
The value was 94 mg/dL and 158 mg/dL and 140 mg/dL and 109 mg/dL and 127 mg/dL.

And the “UREA (urea)” value [1, 3]?
The value was 29 mg/dL and 40 mg/dL and 33 mg/dL and 28 mg/dL (2×).

And the “5′-NT (5-nucleotidase)” value [1, 4]?
Its value is 156 IU/L and 23 IU/L and 17 IU/L and 203 IU/L and 35 IU/L.

And the “A/G (albumin/globulin ratio)” value [1, 4]?
Its value is 1.7 and 2.1 and 1.5 and 2.4 and 1.8.

What about the “ALAT (alanine aminotransferase)” value [1, 4] of the same molecule?
The value was 2350 IU/L and 178 IU/L and 45 IU/L and 4300 IU/L and 479 IU/L.

And the “ALB (albumin)” value [1, 4]?
Its value is 32 g/L and 33 g/L (2×) and 34 g/L and 31 g/L.

And the “AP (alkaline phosphatase)” value [1, 4]?
The value was 787 IU/L and 983 IU/L and 666 IU/L and 999 IU/L and 852 IU/L.

What about the “ASAT (aspartate aminotransferase)” value [1, 4] of the same molecule?
The value was 4320 IU/L and 264 IU/L and 79 IU/L and 10600 IU/L and 832 IU/L.

And the “BILI (bilirubin)” value [1, 4]?
The value was 1.26 mg/dL and 0.06 mg/dL and 0.11 mg/dL and 1.37 mg/dL and 0.12 mg/dL.

What about the “CHOL (total cholesterol)” value [1, 4] of the same molecule?
The value was 60 mg/dL and 15 mg/dL and 61 mg/dL and 42 mg/dL and 46 mg/dL.

What about the “CREA (creatinine)” value [1, 4] of the same molecule?
Its value is 0.4 mg/dL (4×) and 0.5 mg/dL.

What about the “GGT (γ-glutamyl transferase)” value [1, 4] of the same molecule?
The value was 2 IU/L and 0 IU/L (2×) and 5 IU/L and 1 IU/L.

And the “GLUC (glucose)” value [1, 4]?
Its value is 100 mg/dL and 162 mg/dL and 168 mg/dL and 80 mg/dL and 130 mg/dL.

And the “PROT (total protein)” value [1, 4]?
The value was 51 g/L and 49 g/L and 56 g/L and 47 g/L and 48 g/L.

What about the “TBA (total bile acids)” value [1, 4] of the same molecule?
The value was 493 µmol/L and 43.0 µmol/L and 20.0 µmol/L and 1300 µmol/L and 65.0 µmol/L.

And the “TRIG (triglycerides)” value [1, 4]?
Its value is 38 mg/dL (2×) and 89 mg/dL and 148 mg/dL and 95 mg/dL.

What about the “UREA (urea)” value [1, 4] of the same molecule?
Its value is 45 mg/dL and 24 mg/dL and 29 mg/dL and 40 mg/dL and 25 mg/dL.

What about the urinary creatine [2, 5] of the same molecule?
Its urinary creatine is “Creatine: no increase”.

What about the urinary taurine [2, 5] of the same molecule?
The urinary taurine was “instances of raised”.

And the “urinary 2-oxoglutarate” value [2, 6]?
Its value is 2-Oxoglutarate: Animals 203-205 showed no obvious change and reduced levels on days 2 and 3 but very high levels on day 7.

And the urinary taurine [2, 6]?
The urinary taurine was “increases; also recorded: Taurine: Animals 203-205 showed no clear change whilst; also recorded: animals 201 & 202 showed highly elevated levels”.

What about the “urinary guanidinoacetic acid (GAA)” value ([2]; 800 mg/kg i.p., animals 201 and 202, hydrochloride) of the same molecule?
Its value is “increases; also recorded: very much increased levels on day 3 and perhaps somewhat”.

And the urinary betaine ([2]; 800 mg/kg i.p., day 2 and day 3, animals 201 & 202, hydrochloride)?
Its urinary betaine is “increases; also recorded: Betaine: appeared very clearly in the day 2 and day 3 samples”.

What about the urinary glucose [2, 7] of the same molecule?
Its urinary glucose is “Glucose: appeared to be elevated in the day 2 and day 3”.

What about the urinary urocanic acid [2, 7] of the same molecule?
Its urinary urocanic acid is “Urocanic acid: appeared clearly in the day 2 and day 3”.

What about the “urinary glutamate and glutamine” value ([2]; 800 mg/kg i.p., day 3, animal 201) of the same molecule?
The value was “Glutamate and glutamine were elevated in the day 3 urine”.

What about the urinary histidine ([2]; 800 mg/kg i.p., day 3, animal 201, hydrochloride) of the same molecule?
Its urinary histidine is “increased excretion”.

And the “urinary trimethylamine-N-oxide (TMAO)” value ([2]; 800 mg/kg i.p., day 3, animals 201 & 202, hydrochloride)?
The value was “decreases; also recorded: levels, TMAO had essentially disappeared from the day 3”.

What about the “urinary bile acids (seen as C18 methyl)” value [2, 8] of the same molecule?
The value was “Bile acids: clearly increased (seen as C18 methyl) in the day”.

And the urinary threonine [2, 8]?
Its urinary threonine is “Threonine: was very clearly elevated in the day 3 samples”.

And the urinary creatine [2, 9]?
The urinary creatine was “increases; also recorded: Creatine: Only animals 201 and 202 showed a clear increase”.

What about the urinary hippurate [2, 9] of the same molecule?
The urinary hippurate was “decreased excretion; also recorded: Hippurate: was depleted in the day 3 samples from animals”.

And the “Total amount of galactosamine excreted in the urine from 0-24 hours post-dosing” value ([2]; 800 mg/kg i.p., individual animals 201-210, hydrochloride)?
The value was 40.0 mg and 26.2 mg and 0.4 mg and 0.1 mg and 0.3 mg and 14.9 mg and 8.4 mg and 2.3 mg and 28.2 mg and 30.5 mg.
